According to PubChem BioAssay (NCI):
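Following 48 hours of exposure in 96-well plates, responses at five concentrations were used to interpolate endpoints linearly. GI50: concentration for 50% inhibition of growth. TGI: total growth inhibition.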

Tests used:
Assay in all cases: NCI-60 cell line screen, 48 h
786-0 renal = system: 786-0 renal
ACHN renal = system: ACHN renal
EKVX NSCLC = system: EKVX NSCLC
HL-60(TB) leukemia = system: HL-60(TB) leukemia
K-562 leukemia = system: K-562 leukemia
LOX IMVI melanoma = system: LOX IMVI melanoma
MALME-3M melanoma = system: MALME-3M melanoma
SF-268 CNS = system: SF-268 CNS
SF-295 CNS = system: SF-295 CNS
SW-620 colon = system: SW-620 colon

Compound | GI50 (786-0 renal) [µM] | TGI (786-0 renal) [µM] | GI50 (ACHN renal) [µM] | TGI (ACHN renal) [µM] | GI50 (EKVX NSCLC) [µM] | TGI (EKVX NSCLC) [µM] | GI50 (HL-60(TB) leukemia) [µM] | TGI (HL-60(TB) leukemia) [µM] | GI50 (K-562 leukemia) [µM] | TGI (K-562 leukemia) [µM] | GI50 (LOX IMVI melanoma) [µM] | TGI (LOX IMVI melanoma) [µM] | GI50 (MALME-3M melanoma) [µM] | TGI (MALME-3M melanoma) [µM] | GI50 (SF-268 CNS) [µM] | TGI (SF-268 CNS) [µM] | GI50 (SF-295 CNS) [µM] | TGI (SF-295 CNS) [µM] | GI50 (SW-620 colon) [µM] | TGI (SW-620 colon) [µM]
Cc1cc(Nc2cc(N3CCN(C)CC3)nc(Sc3ccc(NC(=O)C4CC4)cc3)n2)n[nH]1 | > 10 | > 10 | > 10 | > 10 | > 10 | > 10 | 0.283 | > 10 | 0.232 | > 10 | 0.424 | 3.87 | 4.85 | > 10 | 5.52 | > 10 | 1.28 | > 10 | 1.08 | > 10
COc1cc2c(=O)n(CCN(C)C)c3c4cc5c(cc4ccc3c2cc1OC)OCO5 | 0.166 | 0.672 | 0.128 | 0.363 | 0.694 | 4.7 | 0.239 | 3.74 | 0.186 | > 11.3 | 0.1 | 0.32 | 0.241 | 0.967 | 0.222 |  | 0.155 | 3.15 | 0.239 | 6.87
CCOC(=O)/C=C/C(=O)[C@H](CC(C)C)NC(=O)[C@H](Cc1ccccc1)NC(=O)OCc1ccccc1 | 1.84 | 3.4 | 2.36 | 5.72 | 15.6 | 29 | 2.26 | 9.67 | 2.09 | 10.5 | 1.76 | 3.39 | 3.89 | 15.3 | 3.3 | 13.3 | 16.2 | 29.8 | 2.86 | 8.16
C#CC1(O)CCC2[C@@H]3CCc4cc(Oc5nc(F)nc(-c6c7ccccc7cn6C)n5)ccc4C3CC[C@@]21C (some centres undefined) |  | > 100 |  | > 100 |  | > 100 |  | > 100 |  | > 100 |  | > 100 |  | > 100 |  | > 100 |  | > 100 |  | > 100
COC1C2c3cc4c(cc3CC(C#N)(c3ccccc32)N1C(=O)c1ccccc1)OCO4 (centres undefined) |  | > 100 |  | > 100 |  | > 100 |  | > 100 |  | > 100 |  | > 100 |  | > 100 |  | > 100 |  | > 100 |  | > 100
COc1cc(/C=C/c2cc(/C=C/c3ccc(O)c(OC)c3)n(C(=O)Nc3ccc(Cl)cc3)n2)ccc1O | 0.515 | 1.85 | 0.52 | 11.4 | 1.61 | 9.62 | 0.292 | 0.982 | 0.306 | 1.34 | 0.448 | 2.26 | 0.76 | 3.96 | 0.58 | 4.2 | 1.5 | 7.86 | 0.49 | 2.73
Cc1cnc(Nc2ccc(N3CCN(C)CC3)cc2)nc1Nc1ccc(Cl)c(NS(=O)(=O)C(C)(C)C)c1 | 0.208 | 1.82 | 0.0902 | 2.2 | 0.311 | 4.4 | 0.103 | 1.02 | 0.245 | 7.74 | 0.169 | 0.866 | 0.69 | 2.62 | 0.474 | 3.54 | 0.524 | 2.95 | 0.232 | 5.45
OC12c3ccccc3C3CCC4(OCCO4)C3C1c1ccccc12 (centres undefined) |  | > 100 |  | > 100 |  | > 100 |  | > 100 |  | > 100 |  | > 100 |  | > 100 |  | > 100 |  | > 100 |  | > 100
